Laboratory results: patent publication US20210113522A1, “COUMARIN DERIVATIVE AS ANTI-ASTHMATIC AGENT, PHARMACEUTICAL COMPOSITION THEREOF, ITS PREPARATION AND USE” (I-NOVA MEDICINSKA ISTRAZIVANJA D.O.O., priority 2017, published 2021)

What was measured:
[1] = MTT cytotoxicity / cell survival in murine fibroblast line L20B; format: cell-based; settings: mouse; L20B, 48 h; read-out: CC50 (cytotoxic concentration for 50% cells)
Procedure: (§1) Cytotoxicity of compound 1 was determined through the study of cell growth and viability by the methods of determination of maximal non-toxic concentration (MNC) and concentration required for cell viability by 50% (CC50). […] Cytotoxic concentration at 50% (CC50) was defined as the concentration of the test substance 1 at which 50% of the cells die as a result of toxicity of the test substance.
(§2) Evaluation of cytotoxicity was an important part of the assessment of anti-asthmatic activity of compound 1 since its beneficial therapeutic effect at asthma and other inflammatory respiratory diseases should be selective with little or no effects on the metabolism of host cells. The study of cytotoxicity of compound 1 was performed on two types of cell lines of murine fibroblasts L20B and L929 from European collection of cell cultures (ECACC).
(§3) Cell viability was estimated by a modification of the 3-(4,5-dimethylthiazol-2-yl)-2,5-diphenyltetrazolium bromide (MTT) assay which is one of the most frequently used methods for measuring cell proliferation and cytotoxicity; see literature reference 12: • 12) T. Mosmann: Rapid colorimetric assay for cellular growth and survival: Application to proliferation and cytotoxicity assays, J. Immunol. Methods 65 (1983) 55-63.
(§4) Cell viability was reported as the percentage (%) of viable cells in the wells treated with different concentrations of the test compound 1, compared to the control cells untreated with the substance. Maximal non-toxic concentration (MNC) and cytotoxic concentration for 50% of cells (CC50) were calculated from the constructed “dose-cellular survival” curve.
(§5) Cytotoxicity of compound 1 was determined through the study of cell growth and viability by the methods of determination of maximal non-toxic concentration (MNC) and concentration required for cell viability by 50% (CC50).
(§6) The compound 1 (Mw=410.02) under study were first dissolved in DMSO (Sigma-Aldrich) to a concentration of 0.1 mol/L (0.1 M) as a stockade later diluted in cell growth medium Dulbecco's Modified Eagle Medium (DMEM; Sigma-Aldrich) with 2% heat inactivated fetal bovine serum.
(§7) The study of cytotoxicity of compound 1 was performed on two types of murine fibroblasts cell lines: L20B and L929 from European collection of cell cultures (ECACC). Cells were routinely maintained as adherent cell cultures in DMEM medium and containing 10% Fetal bovine serum (FBS; Gibco), 2 mM L-glutamine (Sigma-Aldrich), 100 U/mL penicillin G sodium (Sigma-Aldrich), 100 μg/mL streptomycin sulphate (Sigma-Aldrich) at 37° C. in a humidified air incubator containing 5% carbon dioxide (CO2). Cultivation of the cells was continued with direct monitoring every two or three days using a phase contrast microscope. The cells are harvested in 1× trypsin/EDTA solution (Sigma-Aldrich). Cells were passages 1:3-1:5 at a density around 5-6·10^4 cells/mL, while the passage was re-suspended repeatedly.
(§8) Methods of determining cell growth, cell viability, maximal non-toxic concentration (MNC) and concentrations, required cell viability by 50% (CC50): Cell viability was estimated by a modification of the MTT [3-(4,5-dimethylthiazol-2-yl)-2,5-diphenyltetrazolium bromide] assay; see literature reference 12. The MTT reduction assay is one of the most frequently used methods for measuring cell proliferation and cytotoxicity. The intensity of colour (measured spectrophotometrically) of the MTT formazan produced by living, metabolically active cells by measuring the activity of succinate dehydrogenase, mostly located in mitochondria was proportional to the number of live cells present. MTT was a yellow water-soluble tetrazolium dye that was reduced by live, but not dead cells to a purple formazan product that was insoluble in aqueous solutions.
(§9) Each cell line was plated at an appropriate density (7.5·10^3 cells/well for L20B cell culture and 4·10^4 cells/well for L929 cell culture) in 96-well plates (Costar Corning; USA) for 24 h. […]

L20B = assay: as above; format: cell-based
Procedure: as §1, §2, §3, §4, §5, §6, §7, §8, §9

[2] = MTT cytotoxicity / cell survival in murine fibroblast line L929; format: cell-based; settings: mouse; L929, 48 h; read-out: CC50 (cytotoxic concentration for 50% cells)
Procedure: as §1, §2, §3, §4, §5, §6, §7, §8, §9

L929 = assay: as above; format: cell-based
Procedure: as §1, §2, §3, §4, §5, §6, §7, §8, §9

[3] = tested on: mucus production in the airway; assay: OVA model: airway mucus production (PAS staining); format: in vivo, Balb/c mice; settings: vs mice that received no treatment; 1 2 mg/kg therapeutically or preventively, beclomethasone 1 mg/kg
Procedure: Enhanced airway mucus production results from airway inflammation and is hallmark of allergic asthma. Thus, mechanisms that suppress immune responses in the lung could result in suppression of mucus production. Mucus production was measured 2 days after i.n. challenge in experimental mice that were treated with compound 1 or beclomethasone (as standard) and lung sections were stained with periodic acid-Schiff stain (PAS). Mucus production in the lung was quantitated immunohistologically by evaluation of mucus-positive epithelia. […]
Mucus production was measured 2 days after i.n. challenge in experimental mice that were treated with compound 1 or beclomethasone (as standard) and lung sections were stained with PAS. Mucus production in the lung was quantitated immunohistologically by evaluation of mucus-positive epithelia.

O=c1oc2cc(O)cc(O)c2c(O)c1-c1coc2c1c(=O)oc1cc(O)cc(O)c12 [Compound 1, 7,9-dihydroxy-3-(4,5,7-trihydroxy-2-oxo-2H-chromene-3-yl)-4H-furo[3,2-c]chromen-4-one]
CC50 at 48 h [1]: 9 mM
Cell survival, cell culture L20B (L20B; 0.0001 mg/mL of 1, 48 h): 103.3%
Cell survival, cell culture L20B (L20B; 0.001 mg/mL of 1, 48 h): 99.7%
Cell survival, cell culture L20B (L20B; 0.01 mg/mL of 1, 48 h): 94.5%
Cell survival, cell culture L20B (L20B; 0.05 mg/mL of 1, 48 h): 91.3%
Cell survival, cell culture L20B (L20B; 0.1 mg/mL of 1, 48 h): 88.2%
Cell survival, cell culture L20B (L20B; 0.5 mg/mL of 1, 48 h): 85.6%
Cell survival, cell culture L20B (L20B; 1 mg/mL of 1, 48 h): 72.4%
Cell survival, cell culture L20B (L20B; 5 mg/mL of 1, 48 h): 60.2%
Cell survival, cell culture L20B (L20B; 10 mg/mL of 1, 48 h): 48.5%
Cytotoxicity (overall, in words) (L20B; L20B, 48 h): low cytotoxicity
Typical cytopathology characterizing the toxic effect (microscopic morphology of monolayers) (L20B; L20B, 48 h, 0.0001-10 mg/mL): not registered
CC50 at 48 h [2]: 10 mM
Cell survival, cell culture L929 (L929; 0.0001 mg/mL of 1, 48 h): 100.6%
Cell survival, cell culture L929 (L929; 0.001 mg/mL of 1, 48 h): 98.8%
Cell survival, cell culture L929 (L929; 0.01 mg/mL of 1, 48 h): 95.3%
Cell survival, cell culture L929 (L929; 0.05 mg/mL of 1, 48 h): 87.1%
Cell survival, cell culture L929 (L929; 0.1 mg/mL of 1, 48 h): 89.3%
Cell survival, cell culture L929 (L929; 0.5 mg/mL of 1, 48 h): 83.2%
Cell survival, cell culture L929 (L929; 1 mg/mL of 1, 48 h): 76.1%
Cell survival, cell culture L929 (L929; 5 mg/mL of 1, 48 h): 64.9%
Cell survival, cell culture L929 (L929; 10 mg/mL of 1, 48 h): 50.5%
Cytotoxicity against L929 relative to L20B according to MNC values (L929; 48 h): 10 ×
Cytotoxicity against L929 versus L20B according to CC50 values (L929; 48 h): the same cytotoxicity
Cytotoxicity (overall, in words) (L929; L929, 48 h): low cytotoxicity
Typical cytopathology characterizing the toxic effect (microscopic morphology of monolayers) (L929; L929, 48 h, 0.0001-10 mg/mL): not registered
Mucin production in the airway (PAS) [3]: significant reduction
